Assay results published in EP0390654B1, “Aminobenzenesulfonic acid derivative” (Mitsubishi Chemical Corporation, priority 1989, dated 1990).

Experiments:
[1] = tested on: Papillary muscle of right ventricle; test: Inhibition of the cardiotonic activity of isoproterenol (developed tension) in isolated papillary muscle, as index of inhibiting Ca²⁺ overload into cells; design: species or system male Hartley-strain guinea-pigs; settings: Drug concentration 10⁻³ M; inhibition of developed tension increased by isoproterenol
Method: For evaluation of the extent of inhibiting Ca²⁺ overload into cells, which is the pharmacological activity of the compound of the present invention, inhibition of the cardiotonic activity of isoproterenol by the compounds of the present invention was measured.
That is to say, since isoproterenol has been known to cause Ca²⁺ overload by excessive Ca²⁺ influx into cardiac muscle cells (Fleckenstein A., Janke J., Doring H., Leder O.; Recent advances in Studies on cardiac structure and metabolism, Myocardial Biology, Vol. 4, pp. 563 - 580 (1974)), the compound which inhibits the activity of isoproterenol can inhibit Ca²⁺ overload into cells.
Papillary muscle of right ventricle isolated from male Hartley-strain guinea-pigs (body weight: 250 to 350 g) was suspended in an organ bath filled with a nutrient solution (Krebs-Henseleit solution). The temperature of the nutrient solution was maintained at 32 °C, and a gas mixture of 95 % oxygen and 5 % carbon dioxide was aerated. The papillary muscle was applied with a resting tension of about 0.5 g, and stimulated with platinum electrodes by an electric pulse wave of a duration of 1 msec, a frequency of 1 Hz and a voltage higher by 15 % than the threshold value. The developed tension of the papillary muscle was measured through a tension transducer and recorded with a polygraph. After the specimen was stabilized for about 90 minutes, isoproterenol ([…]) was added into the organ bath so that developed tension could be increased by 100 % or more, and at the point when the maximum reaction was obtained, the compounds of the present invention were added into the organ bath, and % inhibition of the developed tension increased by isoproterenol was measured.

isolated heart of rat = test: Protective effect on ischemic myocardium, Langendorff-perfused isolated heart (ischemia 90 minutes, then reperfusion); design: species or system Male Wister rats; settings: for Developed tension (%): % of value in equilibration period, 30 minutes after reperfusion, Control 32.5; for Rise in resting tension: just before reperfusion, Control 0.72
Method: For the evaluation of the protective effect of ischemic myocardium, two parameters (rise in resting tension and decrease in developed tension), indices of myocardial injury, were measured in the myocardial ischemic model using isolated heart of rat.
It is reported that drugs which have the protective effect on ischemic myocardium attenuates the rise in resting tension and decrease in developed tension induced by Ca²⁺ overload into myocardial cells when the heart is exposed to ischemia. (Araki, H. & Lefer, AM.: Role of prostacyclin in the preservation of ischemic myocardial tissue in the perfused cat heart. Circ. Res., 47: 757-763, 1980).
Male Wister rats (250-350 g) were killed and their hearts excised. The hearts were then arranged for coronary perfusion with Krebs-Henseleit solution (37 °C, aerated with a gas mixture of 95 % O₂ - 5 % CO₂) according to the method of Langendorff. Tension development was monitored with a force displacement transducer attached via a cotton ligature to the ventricular apex with a resting tension of 1.5 g. After a equilibration period of 1 hour, myocardial ischemia was induced by lowering perfusion pressure from 80 cm H₂O to 12 cm H₂O for 90 minutes. The heart was then reperfused with the previous perfusion pressure of 80 cm H₂O. Rise in resting tension (g) just before reperfusion and developed tension (%) (% of value in equilibration period) 30 minutes after reperfusion were measured.

[2] = Acute toxicity, 50 % lethal dose (LD₅₀); settings: mouse, in vivo, male mice
Method: Among compounds of the present invention, the compound No. 110 was tested for its acute toxicity.
Compound No. 110 was administered to male mice (18 - 25 g) for determination of 50 % lethal dose (LD₅₀). Two routes of administration tested were as follows: • 1) intravenous (into tail vein) administration in which calculation of LD₅₀ was according to up and down method and • 2) oral administration in which calculation of LD₅₀ was according to probit method. Compound No. 110 was diluted in physiological salt solution (0.9 % sodium chloride) for intravenous administration and distilled water for oral administration.

Compound: O=S(=O)(O)c1cc(Br)ccc1N1CCNCC1 [compound 94]
- Inhibition (%) [1]: 18.5%

Compound: Cc1ccc(N2CCNCC2)c(S(=O)(=O)O)c1 [Compound No. 12, 2-(1-piperazinyl)-5-methylbenzenesulfonic acid]
- Inhibition (%) [1]: 18.5%

Compound: O=S(=O)(O)c1cc(Cl)ccc1N1CCNCC1 [compound 93]
- Inhibition (%) [1]: 28.0%

Compound: CC(C)c1ccc(N2CCNCC2)c(S(=O)(=O)O)c1 [compound 111]
- Inhibition (%) [1]: 27.5%

Compound: CCCc1ccc(N2CCCN(C)CC2)c(S(=O)(=O)O)c1 [compound 89]
- Developed tension (%) (isolated heart of rat; Drug concentration 10⁻⁵ M): 58.4%
- Rise in resting tension (isolated heart of rat; Drug concentration 10⁻⁵ M): 0.25 g

Compound: CCCc1ccc(N2CCNCC2)c(S(=O)(=O)O)c1.Cl [Compound No. 110, 2-(1-piperazinyl)-5-n-propylbenzenesulfonic acid hydrochloride]
- Developed tension (%) (isolated heart of rat; Drug concentration 10⁻⁵ M): 77.0%
- Rise in resting tension (isolated heart of rat; Drug concentration 10⁻⁵ M): 0.09 g
- Developed tension (%) (isolated heart of rat; Drug concentration 10⁻⁶ M): 65.4%
- Rise in resting tension (isolated heart of rat; Drug concentration 10⁻⁶ M): 0.33 g
- Developed tension (%) (isolated heart of rat; Drug concentration 10⁻⁷ M): 32.2%
- Rise in resting tension (isolated heart of rat; Drug concentration 10⁻⁷ M): 0.48 g
- LD50 ([2]; Intravenous administration (tail vein), up and down method): 63 mg/kg
- LD50 ([2]; Oral administration, probit method): 2800 mg/kg

Compound: O=S(=O)(O)c1cc(-c2ccccc2)ccc1N1CCNCC1 [compound 91]
- Inhibition (%) [1]: 17.2%

Compound: CCCc1ccc(N2CCN(Cc3ccc(OC)c(OC)c3)CC2)c(S(=O)(=O)O)c1 [Compound No. 66]
- Inhibition (%) [1]: 52.4%

Compound: CCCc1ccc(N2CCN(Cc3ccc(OC)c(OC)c3OC)CC2)c(S(=O)(=O)O)c1 [Compound No. 69, 2-[4-(2,3,4-trimethoxybenzyl)-1-piperazinyl]-5-n-propylbenzenesulfonic acid]
- Inhibition (%) [1]: 21.4%
